Where two headings read alike, the source gives them in different places.
Tested on: BT474
Experiment: Cell viability (CellTiter-Blue, 72 h), phytocannabinoids alone and in combination, BT474 breast cancer cells
Format: cell-based
Conditions: for IC50: Homo sapiens; for effect (but only 50% effect): extent of effect reached
Procedure: The cell lines tested in this Example were as follows. Breast cancer: MDA-MB-231; SK-BR3; and BT474. Liver cancer: HepG2.
The phytocannabinoids were tested alone and in various ratioed combinations in media containing final concentrations of 10% and 1% foetal bovine serum at 72 h for the breast and prostate cancer lines and 1% foetal bovine serum for the liver cancer line HepG2.
Each tumour cell line was maintained in vitro in RPMI 1640+10% heat inactivated FBS and 2 mM L-glutamine (growth media) at 37° C. in 5% CO2 and humidified conditions. The cells were harvested, washed, re-suspended into growth medium and counted. The cells were re-suspended into assay media (RPMI 1640+5% heat inactivated FBS+ and 2 mM L-glutamine) at 8×104-2×10^5 cells/ml (dependent upon cell type) and plated into the middle 240 wells of 384 well tissue culture plates (Corning CellBind, black-wall plates) 12.5 μl/well aliquots; 62.5 μl of growth media was aliquoted into the outer wells. There were 4 plates for each cell line. The plates were incubated overnight at 37° C., in 5% humidified CO2.
The phytocannabinoid test compounds were prepared in 100% DMSO vehicle at a stock concentration of 10 mM.
Starting with the 10 mM stock, the compounds were diluted to 125 μM in FBS-free growth media.
These were diluted in FBS-free growth media to 125 μM before serial dilution.
5 volumes of CBD 10 mM stock was added to 1 volume of the other agent (also at 10 mM) and 4 volumes of DMSO. This made a final concentration of 5 mM:1 mM. This was then diluted in FBS-free growth media so the top concentration of CBD would be 125 μM (before serial dilution). Each compound and compound combination stock was serially diluted in FBS-free growth media (containing 1.25% v/v DMSO) from 125 μM to 41.7, 13.89, 4.63, 1.54, 0.514, 0.171, 0.057 and 0.019 μM (1.25× final assay concentrations). Vehicle was prepared at equivalent dilutions in assay media. The top final concentration of compound in the assay was always 100 μM so CBD5:1CBG was 100 μM CBD and 20 μM CBG.
Taxotere SOC was prepared at a stock concentration of 1 mM in 100% DMSO. Taxotere was serially diluted from the stock solution into FBS-free growth media to 12.5 μM, then serially diluted in FBS-free growth media containing 1.25% DMSO to 4.17, 1.39, 0.46, 0.154, 0.051, 0.017, 0.006, 0.002 μM (1.25× final assay concentrations).
This was then serially diluted in FBS-free growth media to 0.417, 0.139, 0.046, 0.0154, 0.0051, 0.0017, 0.0006, 0.0002 μM (1.25× final assay concentrations). This was plated as a positive control for the SKBR3 & BT474 cell lines. 50 μl per well of compound/vehicle dilutions was added to the plates in replicates of 6. Where applicable total volume in the well was made up to 62.5 μl with assay media.
The plates were incubated for 72 h at 37° C. in 5% humidified CO2. To develop the plates, at 72 h, 10 μl of CellTiter-Blue™ reagent was added to each test/blank well. The plates were incubated at 37° C., 5% humidified CO2. Fluorescence was measured using a Flex II Station plate reader (570 nm excitation wavelength, 600 nm emission wavelength, 590 nm cut-off) after 3 h.
The experimental conditions were the same as the experiment above, with the same compound dilutions and volumes for plating but using growth media containing 10% FBS rather than FBS-free media.
The raw data values expressed in relative fluorescent units were normalised to the vehicle for each individual plate and any reduction in fluorescence indicated a decrease in viability.
The data were analysed in GraphPad PRISM using a non-linear sigmoidal plot with variable slope (asymmetric five point linear regression) and where possible an IC50 value for each single compound and combination was generated.
For the calculation, raw data values expressed in relative fluorescent units were normalised to the vehicle for each individual plate (set as 0%) and the reduction in fluorescence calculated as an increase in inhibition of viability.

[1] = BT-474, 72 h, BT474, 1% FBS, 72 h, read-out: IC50 values
[2] = BT-474, 72 h, BT474, 10% FBS, 72 h, read-out: IC50 values
[3] = BT-474, BT474, 1% FBS, Calcusyn median-effect analysis, read-out: Dm (median effect dose)

| SMILES | IC50 [1] | IC50 [2] | IC50 [3] | effect (but only 50% effect) (BT474, 1% FBS) | effect (but only 50% effect) (BT474, 10% FBS) |
| --- | --- | --- | --- | --- | --- |
| C=C(C)[C@@H]1CCC(C)=C[C@H]1c1c(O)cc(CCCCC)cc1O [CBD, Cannabidiol] | 8 µM | 28 µM | 16.9 µM | – | – |
| C=C(C)[C@@H]1CCC(C)=C[C@H]1c1c(O)cc(CCCCC)c(C(=O)O)c1O [CBDA, Cannabidiolic acid] | 21.8 µM | > 100 µM | 43.3 µM | – | – |
| CC(=O)O[C@@]12CO[C@@H]1C[C@H](O)[C@@]1(C)C(=O)[C@H](O)C3=C(C)[C@@H](OC(=O)[C@H](O)[C@@H](NC(=O)OC(C)(C)C)c4ccccc4)C[C@@](O)([C@@H](OC(=O)c4ccccc4)[C@H]21)C3(C)C [Taxotere, Docetaxel, reference compound] | < 0.001 µM | < 0.001 µM | – | only 50% | 50% effect) |
| CCCCCc1cc(O)c(C/C=C(\C)CCC=C(C)C)c(O)c1C(=O)O [CBGA, Cannabigerolic acid] | 24.8 µM | ~100 µM | 27.9 µM | – | – |
| CCCCCc1cc(O)c(C/C=C(\C)CCC=C(C)C)c(O)c1 [CBG, Cannabigerol] | 7.9 µM | 37 µM | 14.8 µM | – | – |
| CCCc1cc(O)c2c(c1)OC(C)(C)[C@@H]1CCC(C)=C[C@@H]21 [THCV, Tetrahydrocannabivarin] | 13.3 µM | 31 µM | 20.3 µM | – | – |
